Consider two substances from patent publication US20120083522A1, “MODULATION OF INFLAMMATORY RESPONSES BY FACTOR XI” (Isis Pharmaceuitcals, inc., priority 2009, published 2012).

The test system of data set [1] is IL-1β, IL-6, IFN-γ, TNF-α, IL-8, MIP-1α, MCP-1, MIP-10, RANTES. The data set can be described thus: Cynomolgus monkeys: cytokine and chemokine assays (Example 30). It is filed as in vivo. The method in brief: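 Sampling at day −14 and at necropsy on day 55 gave blood for cytokine and chemokine levels, read with primate antibodies for IL-1β, IL-6, IFN-γ and TNF-α and human cross-reacting antibodies for the rest. Dosing: subcutaneous 25 mg/kg, 3×/week week 1, 2×/week weeks 2–8; PBS control; 2 males + 2 females per group.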

The nature of data set [2]: Cynomolgus monkeys: hematology assays (Example 29). It is filed as in vivo. The method, then: Groups, each consisting of two male and three female monkeys, were injected subcutaneously with ISIS 416838, ISIS 416850, ISIS 416858, ISIS 416864, or ISIS 417002 in escalating doses. Antisense oligonucleotide was administered to the monkeys at 5 mg/kg three times per a week for week 1; 5 mg/kg twice per week for weeks 2 and 3; 10 mg/kg three times per week for week 4; 10 mg/kg twice per week for weeks 5 and 6; 25 mg/kg three times per week for week 7; and 25 mg/kg twice per week for weeks 8, 9, 10, 11, and 12. One control group, consisting of two male and three female monkeys, was injected subcutaneously with PBS according to the same dosing regimen. An additional experimental group, consisting of two male and three female monkeys, was injected subcutaneously with ISIS 416850 in a chronic, lower dose regimen. Antisense oligonucleotide was administered to the monkeys at 5 mg/kg three times per week for week 1; 5 mg/kg twice per week for week 2 and 3; 10 mg/kg three times per week for week 4; and 10 mg/kg twice per week for weeks 5 to 12. Body weights were measured weekly. Blood samples were collected 14 days and 5 days before the start of treatment and subsequently once per week for Factor XI protein activity analysis in plasma and measurement of various hematologic factors. On day 85, the monkeys were euthanized by exsanguination while under deep anesthesia, and organs harvested for further analysis.
The ISIS oligonucleotide, ISIS 416850, given with the chronic dose regimen is distinguished from the other oligonucleotides with an asterisk (*).

Data set [3] concerns soluble CD40 ligand (CD40L). In words: Colitis Study E: CD40L plasma levels. Type of data set: in vivo, Swiss Webb mice. The note with it: for CD40L plasma levels: DSS-treated mice, day 7, 40 mpk. The protocol:
Two groups 8 Swiss Webb mice were dosed with 40 mg/kg of ISIS 404071 injected subcutaneously twice a week for 3 weeks. Two control groups of 8 Swiss Webb mice were dosed with PBS subcutaneously twice a week for 3 weeks. Both the ASO treated groups and one of the control groups were then given 4% DSS in distilled water for 7 days ad libitum. One of the ASO and DSS treated groups was also given intravenous injections of 20 μg of recombinant human Factor XI protein (Haematologic Technologies Inc.) for 7 consecutive days, starting the day before DSS treatment. Mice were sacrificed at the end of the study on day 7 after DSS was administered.
Plasma levels of soluble CD40 ligand (CD40L) are known to be elevated in cases of inflammatory bowel disease (Ludwiczek, O. et al., Int. J. Colorectal Disease. 2003. 18: 142-147) and may be considered a marker of intestinal inflammation. The effect of antisense inhibition of Factor XI on CD40L levels in the plasma was evaluated at the end of the study on day 7 after DSS was administered and the results are presented in Table 39. CD40L levels in plasma were measured by commercially available ELISA kits (Bender MedSystems, Vienna, Austria, eBioscience, San Diego, Calif.) according to the manufacture's protocols.

The subject of the next data set is P-selectin. The data set can be described thus: Colitis Study C: serum P-selectin. Type of data set: in vivo, mice. The protocol: The effect of antisense inhibition of Factor XI on serum P-selectin levels was evaluated in this study. DSS administration led to increase in P-selectin levels which was reduced by treatment with ISIS 404071.
The mark [4] stands for this setting: day −14 (before start of treatment).

In the oligonucleotide strings, read from the 5' end, every base follows the letter of its sugar. An asterisk marks phosphorothioate; unmarked linkages are phosphodiester. Other units and linkages are bracketed, terminal groups are in braces. A string of capitals states the bases alone. e = 2'-O-(2-methoxyethyl) (MOE); [5mC] = 5-methylcytosine; d = 2'-deoxy (DNA)

“ISIS 416850: gapmer of Table 8 (antisense eT*eG*e[5mC]*eA*e[5mC]*dA*dG*dT*dT*dT*d[5mC]*dT*dG*dG*d[5mC]*eA*eG*eG*e[5mC]*e[5mC])”: the IL-1β level in data set [1] (25 mg/kg s.c., day 55) worked out at 106 pg/mL; in data set [1] (setting [4]) it was 215 pg/mL. Besides, the MIP-1β level in data set [1] (25 mg/kg s.c., day 55) was determined as 50 pg/mL; in data set [1] (setting [4]), 31 pg/mL. Besides, the platelet count in data set [2] (day 8) was determined as 548000 µL⁻¹; in data set [2] (day 8, chronic dose regimen (*)), 401000 µL⁻¹; in data set [2] (day 15) it was 559000 µL⁻¹; in data set [2] (day 15, chronic dose regimen (*)) it was 396000 µL⁻¹; in data set [2] (day 22), 466000 µL⁻¹; in data set [2] (day 22, chronic dose regimen (*)), 347000 µL⁻¹. Also, the platelet count was determined as 475000 µL⁻¹ in data set [2] (day 29); 370000 µL⁻¹ in data set [2] (day 29, chronic dose regimen (*)); 505000 µL⁻¹ in data set [2] (day 36); 379000 µL⁻¹ in data set [2] (day 36, chronic dose regimen (*)); 490000 µL⁻¹ in data set [2] (day 43); 391000 µL⁻¹ in data set [2] (day 43, chronic dose regimen (*)). Moreover, the platelet count was 487000 µL⁻¹ in data set [2] (day 50); 351000 µL⁻¹ in data set [2] (day 50, chronic dose regimen (*)); 528000 µL⁻¹ in data set [2] (day 57); 496000 µL⁻¹ in data set [2] (day 64); 465000 µL⁻¹ in data set [2] (day 71); 449000 µL⁻¹ in data set [2] (day 78). The platelet count is 458000 µL⁻¹ in data set [2] (day 85); 573000 µL⁻¹ in data set [2] (day −5); 434000 µL⁻¹ in data set [2] (day −5, chronic dose regimen (*)); 528000 µL⁻¹ in data set [2] (day −14); 387000 µL⁻¹ in data set [2] (day −14, chronic dose regimen (*)). Further, the Monocytes entry in data set [2] (day 57) is on record as “n.d. 3.2%”; in data set [2] (day 64) it was “n.d. 3.5%”; in data set [2] (day 71), “n.d. 4.7%”; in data set [2] (day 78) it was “n.d. 4.5%”; in data set [2] (day 85), “n.d. 3.5%”.

Consider “TGGTAATCCACTTTCAGAGG (eT*eG*eG*eT*eA*dA*dT*d[5mC]*d[5mC]*dA*d[5mC]*dT*dT*dT*d[5mC]*eA*eG*eA*eG*eG) [ISIS 404071, 5-10-5 MOE gapmer targeting murine Factor XI, target start site 869]”, for which the “CD40L levels in plasma (in words)” value in data set [3] (Colitis Study E, day 7) is recorded as “decreased”. Besides, the CD40L plasma levels in data set [3] (no human recombinant FXI) amounted to 1.5 ng/mL; in data set [3] (plus human recombinant FXI 20 ug/mouse/day), 1.6 ng/mL. Also, the “P-selectin levels (in words)” value in the data set on P-selectin was “reduced”. In addition, the P-selectin in the data set with P-selectin (DSS-induced colitis mice) came to 83 ng/mL.
